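Exposure lasted 48 hours, with cells grown in 96-well plates and compounds tested at five concentrations. TGI: concentration producing complete growth inhibition.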
Experiments:
Assay in all cases: growth of human tumour cells (NCI), 48 h
[1] = tested on: RPMI-8226 leukemia
[2] = tested on: NCI-H226 lung
[3] = tested on: OVCAR-5 ovarian
[4] = tested on: TK-10 renal
[5] = tested on: MOLT-4 leukemia
[6] = tested on: SK-MEL-28 melanoma
[7] = tested on: BT-549 breast
[8] = tested on: IGROV1 ovarian
[9] = tested on: K-562 leukemia
[10] = tested on: MALME-3M melanoma
[11] = tested on: SK-OV-3 ovarian
[12] = tested on: NCI/ADR-RES ovarian
[13] = tested on: HCT-116 colon
[14] = tested on: HL-60(TB) leukemia
[15] = tested on: SF-295 CNS
[16] = tested on: SW-620 colon
[17] = tested on: OVCAR-3 ovarian
[18] = tested on: HCT-15 colon
[19] = tested on: KM12 colon
[20] = tested on: MDA-N
[21] = tested on: EKVX NSCLC
[22] = tested on: MDA-MB-435
[23] = tested on: MDA-MB-231 breast
[24] = tested on: NCI-H23 lung
[25] = tested on: HCC-2998 colon
[26] = tested on: PC-3 prostate
[27] = tested on: SNB-75 CNS
[28] = tested on: HT29 colon
[29] = tested on: UO-31 renal
[30] = tested on: OVCAR-8 ovarian
[31] = tested on: HOP-92 NSCLC
[32] = tested on: SK-MEL-5 melanoma
[33] = tested on: ACHN renal
[34] = tested on: CAKI-1 renal
[35] = tested on: 786-0 renal
[36] = tested on: A549 NSCLC
[37] = tested on: M14 melanoma
[38] = tested on: SNB-19 CNS
[39] = tested on: HOP-62 NSCLC
[40] = tested on: MCF7 breast
[41] = tested on: A498 renal
[42] = tested on: U251 CNS
[43] = tested on: UACC-62 melanoma
[44] = tested on: UACC-257 melanoma
[45] = tested on: LOX IMVI melanoma
[46] = tested on: RXF 393 renal
[47] = tested on: COLO 205 colon
[48] = tested on: DU-145 prostate
[49] = tested on: CCRF-CEM leukemia
[50] = tested on: NCI-H522 lung
[51] = tested on: NCI-H460 lung
[52] = tested on: SF-268 CNS
[53] = tested on: OVCAR-4 ovarian
[54] = tested on: SK-MEL-2 melanoma
[55] = tested on: HS 578T breast
[56] = tested on: T-47D breast
[57] = tested on: SN12C renal
[58] = tested on: SF-539 CNS
[59] = tested on: SR leukemia

`N#CC1C(=O)NC23CCCCC2C1c1ccccc1O3` (stereo not given) was tested, and the TGI [1] was > 100 µM, the TGI [2] was > 100 µM and the TGI [3] was > 100 µM. The TGI [4] was > 100 µM, the TGI [5] was > 100 µM and the TGI [6] was > 100 µM. For the same compound, the TGI [7] was > 100 µM, the TGI [8] was > 100 µM and the TGI [9] was > 100 µM. For the same compound, the TGI [10] was > 100 µM, the TGI [11] was > 100 µM and the TGI [12] was > 100 µM. The TGI [13] was > 100 µM, the TGI [14] was > 100 µM and the TGI [15] was > 100 µM. For the same compound, the TGI [16] was > 100 µM, the TGI [17] was > 100 µM and the TGI [18] was > 100 µM. For the same compound, the TGI [19] was > 100 µM, the TGI [20] was > 100 µM and the TGI [21] was > 100 µM. For the same compound, the TGI [22] was > 100 µM, the TGI [23] was > 100 µM and the TGI [24] was > 100 µM. For the same compound, the TGI [25] was > 100 µM, the TGI [26] was > 100 µM and the TGI [27] was > 100 µM. For the same compound, the TGI [28] was > 100 µM, the TGI [29] was > 100 µM and the TGI [30] was > 100 µM. The TGI [31] was > 100 µM, the TGI [32] was > 100 µM and the TGI [33] was > 100 µM. For the same compound, the TGI [34] was > 100 µM, the TGI [35] was > 100 µM and the TGI [36] was > 100 µM. For the same compound, the TGI [37] was > 100 µM, the TGI [38] was > 100 µM and the TGI [39] was > 100 µM. The TGI [40] was > 100 µM, the TGI [41] was > 100 µM and the TGI [42] was > 100 µM. For the same compound, the TGI [43] was > 100 µM, the TGI [44] was > 100 µM and the TGI [45] was > 100 µM. For the same compound, the TGI [46] was > 100 µM, the TGI [47] was > 100 µM and the TGI [48] was > 100 µM. The TGI [49] was > 100 µM, the TGI [50] was > 100 µM and the TGI [51] was > 100 µM. The TGI [52] was > 100 µM, the TGI [53] was > 100 µM and the TGI [54] was > 100 µM.
With `O=[N+]([O-])c1cccc2nnccc12` the TGI [1] was > 100 µM, the TGI [55] was > 100 µM and the TGI [2] was 58 µM. For the same compound, the TGI [3] was > 100 µM, the TGI [4] was > 100 µM and the TGI [5] was > 100 µM. For the same compound, the TGI [56] was > 100 µM, the TGI [7] was > 100 µM and the TGI [8] was > 100 µM. For the same compound, the TGI [9] was > 100 µM, the TGI [10] was 26.9 µM and the TGI [11] was > 100 µM. For the same compound, the TGI [12] was > 100 µM, the TGI [13] was 29.4 µM and the TGI [14] was 14.4 µM. For the same compound, the TGI [15] was > 100 µM, the TGI [16] was > 100 µM and the TGI [18] was 28.3 µM. The TGI [19] was > 100 µM, the TGI [20] was 34.5 µM and the TGI [57] was > 100 µM. For the same compound, the TGI [21] was > 100 µM, the TGI [22] was 32.5 µM and the TGI [24] was > 100 µM. The TGI [26] was > 100 µM, the TGI [27] was > 100 µM and the TGI [28] was 53.6 µM. The TGI [29] was 95.4 µM, the TGI [30] was > 100 µM and the TGI [31] was 71.4 µM. For the same compound, the TGI [32] was 27 µM, the TGI [33] was 30 µM and the TGI [34] was 90.6 µM. The TGI [35] was 50.4 µM, the TGI [36] was > 100 µM and the TGI [37] was > 100 µM. For the same compound, the TGI [58] was > 100 µM, the TGI [38] was 87.1 µM and the TGI [40] was > 100 µM. For the same compound, the TGI [42] was > 100 µM, the TGI [43] was 34.2 µM and the TGI [44] was 39.9 µM. For the same compound, the TGI [46] was > 100 µM, the TGI [47] was 34.1 µM and the TGI [48] was > 100 µM. For the same compound, the TGI [50] was 20.6 µM, the TGI [51] was 42.2 µM and the TGI [52] was > 100 µM. The TGI [54] was > 100 µM.
With `CSc1nc2c(c(=O)[nH]1)N=C(c1ccc([N+](=O)[O-])cc1)CC(c1ccccc1)N2` (stereo not given) the TGI [1] was 57.5 µM, the TGI [59] was > 100 µM and the TGI [2] was > 100 µM. The TGI [3] was > 100 µM, the TGI [5] was > 100 µM and the TGI [6] was > 100 µM. For the same compound, the TGI [7] was > 100 µM, the TGI [8] was > 100 µM and the TGI [9] was > 100 µM. For the same compound, the TGI [10] was > 100 µM, the TGI [12] was > 100 µM and the TGI [13] was 47.1 µM. The TGI [14] was 39.7 µM, the TGI [15] was > 100 µM and the TGI [16] was 91.7 µM. The TGI [17] was > 100 µM, the TGI [19] was 33.2 µM and the TGI [20] was > 100 µM. For the same compound, the TGI [57] was > 100 µM, the TGI [21] was > 100 µM and the TGI [22] was > 100 µM. For the same compound, the TGI [23] was 78.8 µM, the TGI [24] was > 100 µM and the TGI [25] was 57.7 µM. For the same compound, the TGI [26] was > 100 µM, the TGI [27] was 74.7 µM and the TGI [28] was 48 µM. The TGI [29] was > 100 µM, the TGI [30] was > 100 µM and the TGI [31] was > 100 µM. The TGI [32] was 55.6 µM, the TGI [33] was > 100 µM and the TGI [34] was > 100 µM. For the same compound, the TGI [35] was > 100 µM, the TGI [36] was > 100 µM and the TGI [37] was > 100 µM. The TGI [58] was 76.2 µM, the TGI [38] was > 100 µM and the TGI [39] was > 100 µM. The TGI [40] was 57.6 µM, the TGI [41] was > 100 µM and the TGI [42] was > 100 µM. The TGI [43] was > 100 µM, the TGI [44] was > 100 µM and the TGI [45] was 92.4 µM. The TGI [46] was > 100 µM, the TGI [47] was > 100 µM and the TGI [48] was > 100 µM. For the same compound, the TGI [49] was > 100 µM, the TGI [50] was > 100 µM and the TGI [53] was > 100 µM. For the same compound, the TGI [54] was 88.5 µM.
